Source: US11573241B2, “Total cellular iron as a marker of cancer stem cells and uses thereof” (Institut National de la Sante et de la Recherche Medicale …, priority 2016, dated 2023)
Entries after “also recorded” stand apart in the source; their conditions may differ.

Assays:
[1] = system: HMLER CD24^low and iCSCL-10A2 cells; experiment: Lipid ROS measurements (Bodipy-C11); assay type: cell-based; conditions: 0.5 μM, 48 h
Protocol: Lipid ROS measurements. Cells were treated with Sal or AM5 (0.5 μM) as indicated. Then, cells were trypsinized and washed with PBS. Subsequently, cells were incubated with Bodipy-C11® (D3861, Thermo Fisher Scientific, 2 μM) at 37° C. for 60 min. Next, cells were washed twice with PBS. […] The data were processed using Cell Quest software (BD Biosciences) and FlowJo software (FLOWJO, LLC). For cell imaging, cells were treated as indicated in the main figure (Bodipy-C11®, 1 μM, 1 h), then fixed with formaldehyde (2% in PBS, 12 min) and analyzed by fluorescence microscopy (ex. 488 nm).

HMLER CD24^low cells = experiment: Immunoblotting of iron homeostasis regulatory proteins; assay type: cell-based, human; conditions: for level of autophagy marker protein LC3-II: 24 h; for levels of IRP2, TfR and ferritin: immunoblotting
[2] = system: cells from treated PDX 1 and 2; experiment: Limiting dilution assay, tumor-seeding capacity (ELDA); assay type: in vivo, NOD/SCID mice; conditions: re-implantation into secondary mice
From the text: Limiting dilution assay. Cells from 4-week treated mice were re-implanted into one to four secondary NOD/SCID mice with injection of 10, 50, 500 or 5000 cells for each treated tumor to functionally evaluate the proportion of residual CSCs in each treatment group (Unt., Doc, Sal, AM5) for the PDX 1 and 2. Each mouse that developed a tumor reaching a size of 10 mm was considered as a tumor-bearing mouse.
Estimation of number of CSCs in vivo. The number of mammary gland outgrowths obtained in a fat pad after cell re-implantation is currently used to evaluate the number of stem cells able to repopulate this fat pad. It is based on self-renewal and differentiation abilities, two hallmarks of stem cells. In the same manner, estimation of the number of CSCs can be obtained from tumor outgrowth data collected after limited dilution re-implantation of each group of treatments, based on tumor-initiating capacities of CSCs. For calculation, an online tool is available using Extreme Limiting Dilution Analysis (ELDA) (http://bioinf.wehi.edu.au/software/elda/) for limiting dilution analysis based on the Poisson single-hit model according to the number of outgrowths observed and the number of pat pad re-implanted for each cell dilution.

[3] = system: HMLER CD24^low and iCSCL-10A2 cells; experiment: Intracellular GSH level quantification; assay type: cell-based; conditions: 0.5 μM
Protocol: Intracellular GSH level quantification. Cells were treated with Sal or AM5 (0.5 μM) as indicated, then harvested and counted. The intracellular GSH level was measured using a commercial kit (ab205811, Abcam) according to the manufacturer's protocol.

[4] = system: non-CSC (HMLER CD24^high ID2) cells; experiment: Immunoblotting of iron homeostasis regulatory proteins; assay type: cell-based, human
Protocol: Immunoblotting. Cells were treated as indicated, then washed twice with PBS and lysed with 2× Laemmli buffer. Cell extracts were heated at 95° C. for 5 min, sheared through a 26-gauge needle and quantified with a Nanodrop 2000 (Thermo Scientific). Protein lysates (˜100 μg) were resolved by SDS-PAGE electrophoresis and transferred onto PVDF membranes (Amersham). Membranes were blocked with 5% BSA, 0.1% Tween-20/TBS for 1 h. The blots were then probed with the relevant primary antibodies in 5% BSA, 0.1% Tween-20/TBS at 4° C. overnight with gentle agitation. Membranes were washed with 0.1% Tween-20/TBS for 30 min and were incubated with secondary antibodies for 1 h at RT. Antigens were detected by ECL (Amersham). Imaging was performed using a ChemiDoc™ XRS+ System (Biorad).

iCSCL-10A2 cells = experiment: Annexin V/PI assay; assay type: cell-based; conditions: 0.5 μM, 72 h
Protocol: Annexin V/PI assay. Cells were treated as indicated. After treatment, cell death was quantified using Annexin V-FITC/Propidium Iodide (PI) assay according to the manufacturer's protocol (FITC Annexin V Apoptosis Detection Kit II, 556570, BD Pharmingen™) and analyzed by a LSRFortessa™ flow cytometer (BD Bioscience, San Jose, Calif.). The data were processed using Cell Quest software (BD Biosciences).

Row | SMILES | lipid ROS (Bodipy-C11 staining) [1] | level of autophagy marker protein LC3-II (HMLER CD24^low cells) | levels of IRP2, TfR and ferritin (HMLER CD24^low cells) | tumor-seeding capacity of tumor cells treated in vivo [2] | endogenous levels of GSH [3] | level of ferritin [4] | response of IRP2 and TfR levels [4] | form of cell death (iCSCL-10A2 cells)
1 | C#CCN[C@@H]1C=C[C@]2(O[C@H]([C@@H](CC)C(=O)[C@@H](C)[C@@H](O)[C@H](C)C3O[C@@H](C(CC)C(=O)O)CC[C@@H]3C)[C@@H](C)C[C@H]2C)O[C@@]12CC[C@@](C)([C@H]1CC[C@](O)(CC)[C@H](C)O1)O2 (stereo partly shown) [AM5, Sal-Propargylamine] | presence of lipid peroxidation | increased | increased levels of iron-responsive element-binding protein 2 (IRP2) and transferrin receptor (TfR) along with reduced levels of ferritin | decreased tumor-seeding capacity; also recorded: more potent than both Sal and Doc | diminution of endogenous levels of the ROS scavenger glutathione (GSH) | reduced the level of ferritin | did not observe a response characteristic of a cytosolic depletion of iron | ferroptosis
2 | CC[C@@H](C(=O)[C@@H](C)[C@@H](O)[C@H](C)[C@@H]1O[C@@H]([C@@H](CC)C(=O)O)CC[C@@H]1C)[C@H]1O[C@]2(C=C[C@@H](O)[C@]3(CC[C@@](C)([C@H]4CC[C@](O)(CC)[C@H](C)O4)O3)O2)[C@H](C)C[C@@H]1C [Sal, salinomycin, reference compound] | presence of lipid peroxidation | increased | increased levels of iron-responsive element-binding protein 2 (IRP2) and transferrin receptor (TfR) along with reduced levels of ferritin | decreased tumor-seeding capacity | diminution of endogenous levels of the ROS scavenger glutathione (GSH) | reduced the level of ferritin | did not observe a response characteristic of a cytosolic depletion of iron | ferroptosis
